Results as given in article PMC11143257, “Atomistic mechanism of coupling between cytosolic sensor domain and selectivity filter in TREK K2P channels” (Nature Communications, 2024).
Where a chain is given by its changes, count along the chain named.

Assays:
TREK-1 V322C = target: T1, TREK-1 V322C (Homo sapiens, UniProt O95069, V322C); test: MTS probe modification, inside-out patch-clamp; assay type: cell-based; settings: 100 µM decyl-MTS
T1 construct: expressed in transfected cells; host or cells: Xenopus laevis oocytes (cRNA injection), excised inside-out patches
T1 sequence (O95069 1-426 V322C): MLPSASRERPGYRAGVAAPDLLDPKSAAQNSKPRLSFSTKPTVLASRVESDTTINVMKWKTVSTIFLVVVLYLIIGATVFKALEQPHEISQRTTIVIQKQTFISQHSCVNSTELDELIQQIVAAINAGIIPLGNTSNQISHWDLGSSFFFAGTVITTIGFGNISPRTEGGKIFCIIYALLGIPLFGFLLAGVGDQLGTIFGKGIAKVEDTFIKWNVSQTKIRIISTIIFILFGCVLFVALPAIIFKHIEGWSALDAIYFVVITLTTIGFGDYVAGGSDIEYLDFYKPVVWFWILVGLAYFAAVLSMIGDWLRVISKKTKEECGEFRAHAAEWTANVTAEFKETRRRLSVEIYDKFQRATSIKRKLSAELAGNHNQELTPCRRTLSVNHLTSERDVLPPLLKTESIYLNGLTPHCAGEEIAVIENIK
Description: (§1) First, we measured WT TREK-1, WT TRAAK and TREK-2^* channels without modifiable cysteine residues as references. […] Note, that patch integrity and channel regulation were tested with either 1 mM tetra-pentyl-ammonium (TPenA) and a short pHi activation step. Next, we conducted systematic cysteine scanning mutagenesis of the entire pCt and examined the effect of charged and aliphatic MTS probes.
(§2) Xenopus laevis oocytes were surgically removed from anesthetized adult females, treated with type II collagenase (Sigma-Aldrich/Merck, Germany) and manually defolliculated. A solution containing the K^+ channel-specific cRNA at a desired concentration was injected into Dumont stage V - VI oocytes and subsequently incubated at 17 °C in a solution containing (mM): 54 NaCl, […], 2.4 NaHCO3, 0.82 MgSO4 x 7 H2O, 0.41 CaCl2, 0.33 Ca(NO3)2 x 4 H2O and 7.5 TRIS (pH 7.4 adjusted with NaOH/HCl) for 1 - 7 days before use. Patch-clamp recordings in an inside-out configuration under voltage-clamp conditions were performed at room temperature (22 - 24 °C). Patch pipettes were made from thick-walled borosilicate glass GB 200TF-8P (Science Products, Germany), had resistances of 0.2 - 0.5 MΩ (tip diameter of 10 - 25 µm) and filled with a pipette solution (in mM): 120 KCl, 10 HEPES and 3.6 CaCl2 (pH 7.4 adjusted with KOH/HCl). Intracellular bath solutions and compounds were applied to the cytoplasmic side of excised patches for the various K^+ channels via a gravity flow multi-barrel pipette system. The intracellular solution had the following composition (in mM): 120 KCl, 10 HEPES, 2 EGTA, and 1 Pyrophosphate (pH adjusted with KOH/HCl). Currents were recorded with an EPC10 amplifier (HEKA electronics, Germany) and sampled at 10 kHz or higher and filtered with 3 kHz (-3 dB) or higher as appropriate for the sampling rate.
(§3) Tetra-pentyl-ammonium chloride (TPenA) was purchased from Merck (Sigma-Aldrich), prepared as 100 mM stocks in intracellular recording solution, stored at −20 °C and diluted to a final concentration in intracellular recording solution before measurements. Decyl-MethaneThioSulfonate (Decyl-MTS), (2-(trimethylammonium)ethyl)MethaneThioSulfonate bromide (MTS-ET^+) and Sodium (2-sulfonatoethyl)MethaneThioSulfonate (MTS-ES^-) were purchased from Toronto Research Chemicals. MTS-ET^+ was directly dissolved to the desired concentration of 1 mM in the intracellular recording solution before each experiment. MTS-ET^+ was used immediately after dilution for maximally 5 min. Decyl-MTS and […] were prepared as 10 - 100 mM stocks in DMSO and diluted to the desired concentration before the measurements.
(§4) The fold current increase (fold activation) of a ligand (decyl-MTS) was calculated from the following equation:1 FoldactivationFA=Iactivated/Ibasal with Iactivated represents the stable current level in the presence of 100 µM decyl-MTS and Ibasal the measured current before application of the MTS probe.

TREK-1 T318C = target: T2, TREK-1 T318C (Homo sapiens, UniProt O95069, T318C); test: MTS probe modification, inside-out patch-clamp; assay type: cell-based; settings: 100 µM decyl-MTS
T2 construct: expressed in transfected cells; host or cells: Xenopus laevis oocytes (cRNA injection), excised inside-out patches
T2 sequence (O95069 1-426 T318C): T1 sequence (O95069 1-426 V322C) with T318C, C322V
Description: as §1, §2, §3, §4

CCCCCCCCCCSS(C)(=O)=O [decyl-MTS, Decyl-MethaneThioSulfonate]
full current increase (fold activation) (TREK-1 V322C; mean ± s.e.m.): 42 ± 17 fold | effect on current (TREK-1 V322C; symmetrical K+, +40 mV, pH 7.4): strong and irreversible activation | full current increase (fold activation) (TREK-1 T318C; mean ± s.e.m.): 33 ± 11 fold | effect on current (TREK-1 T318C; symmetrical K+, +40 mV, pH 7.4): strong and irreversible activation
